Test results as given in the supplement of paper PMC9663587.

Columns and labels:
[1] = compound: CC(=O)c1c(C)c2cnc(Nc3ccc(N4CCNCC4)cn3)nc2n(C2CCCC2)c1=O; assay: increase in dead-cell fraction, 72 h; higher = more death;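 further: breast cancer cell lines in 384-well plates, stained with Hoechst plus LIVE/DEAD far red dye and imaged, cells above an LDR intensity threshold counted dead, Hoechst-negative corpses included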
[2] = compound: CCN1CCN(Cc2ccc(Nc3ncc(F)c(-c4cc(F)c5nc(C)n(C(C)C)c5c4)n3)nc2)CC1; assay: as above
[3] = compound: T1, CCOc1cc2ncc(C#N)c(Nc3ccc(OCc4ccccn4)c(Cl)c3)c2cc1NC(=O)/C=C/CN(C)C [Neratinib/HKI272]; assay: as above
[4] = compound: CCc1cnn2c(NCc3ccc[n+]([O-])c3)cc(N3CCCC[C@H]3CCO)nc12; assay: as above
[5] = compound: T1, Neratinib/HKI272; assay: GR value, 72 h; higher = faster growth (1 = untreated, <0 = killing);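 further: breast cancer and non-malignant breast epithelial lines, nine half-log doses, viable cells counted by Hoechst and LIVE/DEAD dye imaging versus time-zero plates and DMSO controls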
[6] = compound: C=CC(=O)Nc1ccc(C(=O)Nc2[nH]nc3c2CN(C(=O)N[C@H](CN(C)C)c2ccccc2)C3(C)C)cc1 [YKL-5-124]; assay: increase in dead-cell fraction, 72 h; higher = more death;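 further: breast cancer cell lines in 384-well plates, stained with Hoechst plus LIVE/DEAD far red dye and imaged, cells above an LDR intensity threshold counted dead, Hoechst-negative corpses included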
[7] = compound: CC(=O)c1c(C)c2cnc(Nc3ccc(N4CCN(CCOCCOCCOCCNC(=O)COc5cccc6c5C(=O)N(C5CCC(=O)NC5=O)C6=O)CC4)cn3)nc2n(C2CCCC2)c1=O [BSJ-03-123]; assay: as above
[8] = compound: CN(C)C(=O)c1cc2cnc(Nc3ccc(N4CCNCC4)cn3)nc2n1C1CCCC1 [LEE011/Ribociclib]; assay: as above
[9] = compound: CN(C)C/C=C/C(=O)Nc1ccc(C(=O)N2CCC[C@@H](Nc3ncc(Cl)c(-c4c[nH]c5ccccc45)n3)C2)cc1 [THZ531]; assay: as above
[10] = compound: T2, CN(C)C/C=C/C(=O)Nc1ccc(C(=O)Nc2cccc(Nc3ncc(Cl)c(-c4c[nH]c5ccccc45)n3)c2)cc1 [THZ1]; assay: as above
[11] = compound: CN1CC[C@H](c2c(O)cc(O)c3c(=O)cc(-c4ccccc4Cl)oc23)[C@H](O)C1 [Flavopiridol]; assay: as above
[12] = compound: T2, THZ1; assay: GR value, 72 h; higher = faster growth (1 = untreated, <0 = killing);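 further: breast cancer and non-malignant breast epithelial lines, nine half-log doses, viable cells counted by Hoechst and LIVE/DEAD dye imaging versus time-zero plates and DMSO controls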

Cell Line: HCC1500
- increase in dead-cell fraction ([1]; 0.0003162 µM): -0.0019
- increase in dead-cell fraction ([1]; 0.001 µM): 0.0086
- increase in dead-cell fraction ([1]; 0.003162 µM): -0.0112
- increase in dead-cell fraction ([1]; 0.01 µM): 0.0091
- increase in dead-cell fraction ([1]; 0.03162 µM): 0.0038
- increase in dead-cell fraction ([1]; 0.1 µM): 0.019
- increase in dead-cell fraction ([1]; 0.3162 µM): 0.0086
- increase in dead-cell fraction ([1]; 1 µM): 0.009
- increase in dead-cell fraction ([1]; 3.162 µM): 0.0027
- increase in dead-cell fraction ([2]; 0.001 µM): -0.0021
- increase in dead-cell fraction ([2]; 0.003162 µM): -0.0174
- increase in dead-cell fraction ([2]; 0.01 µM): -0.0129
- increase in dead-cell fraction ([2]; 0.03162 µM): -0.0035
- increase in dead-cell fraction ([2]; 0.1 µM): -0.0151
- increase in dead-cell fraction ([2]; 0.3162 µM): -0.0201
- increase in dead-cell fraction ([2]; 1 µM): -0.015
- increase in dead-cell fraction ([2]; 3.162 µM): -0.0276
- increase in dead-cell fraction ([2]; 10 µM): 0.0351
- increase in dead-cell fraction ([3]; 0.0003162 µM): 0.0116
- increase in dead-cell fraction ([3]; 0.001 µM): -0.0067
- increase in dead-cell fraction ([3]; 0.003162 µM): 0.017
- increase in dead-cell fraction ([3]; 0.01 µM): -0.0012
- increase in dead-cell fraction ([3]; 0.03162 µM): 0.0316
- increase in dead-cell fraction ([3]; 0.1 µM): 0.0224
- increase in dead-cell fraction ([3]; 0.3162 µM): 0.0504
- increase in dead-cell fraction ([3]; 1 µM): 0.0834
- increase in dead-cell fraction ([3]; 3.162 µM): 0.331
- increase in dead-cell fraction ([4]; 0.0001 µM): 0.0119
- increase in dead-cell fraction ([4]; 0.0003162 µM): -0.0049
- increase in dead-cell fraction ([4]; 0.001 µM): 0.0055
- increase in dead-cell fraction ([4]; 0.003162 µM): 0.0001
- increase in dead-cell fraction ([4]; 0.01 µM): 0.0467
- increase in dead-cell fraction ([4]; 0.03162 µM): 0.285
- increase in dead-cell fraction ([4]; 0.1 µM): 0.499
- increase in dead-cell fraction ([4]; 0.3162 µM): 0.456
- increase in dead-cell fraction ([4]; 1 µM): 0.476
- GR value ([5]; 0.0003162 µM): 1.03 GR
- GR value ([5]; 0.001 µM): 1.13 GR
- GR value ([5]; 0.003162 µM): 1.01 GR
- GR value ([5]; 0.01 µM): 1.02 GR
- GR value ([5]; 0.03162 µM): 0.915 GR
- GR value ([5]; 0.1 µM): 0.889 GR
- GR value ([5]; 0.3162 µM): 0.793 GR
- GR value ([5]; 1 µM): 0.416 GR
- GR value ([5]; 3.162 µM): -0.245 GR

Cell Line: CAL51
- increase in dead-cell fraction ([6]; 0.001 µM): 0.0123
- increase in dead-cell fraction ([6]; 0.003162 µM): 0.0229
- increase in dead-cell fraction ([6]; 0.01 µM): 0.0534
- increase in dead-cell fraction ([6]; 0.03162 µM): 0.0508
- increase in dead-cell fraction ([6]; 0.1 µM): 0.0599
- increase in dead-cell fraction ([6]; 0.3162 µM): 0.0693
- increase in dead-cell fraction ([6]; 1 µM): 0.0723
- increase in dead-cell fraction ([6]; 3.162 µM): 0.134
- increase in dead-cell fraction ([6]; 10 µM): 0.192
- increase in dead-cell fraction ([7]; 0.001 µM): -0.0039
- increase in dead-cell fraction ([7]; 0.003162 µM): -0.0056
- increase in dead-cell fraction ([7]; 0.01 µM): -0.004
- increase in dead-cell fraction ([7]; 0.03162 µM): -0.0021
- increase in dead-cell fraction ([7]; 0.1 µM): -0.0017
- increase in dead-cell fraction ([7]; 0.3162 µM): -0.0037
- increase in dead-cell fraction ([7]; 1 µM): 0.0033
- increase in dead-cell fraction ([7]; 3.162 µM): 0.0021
- increase in dead-cell fraction ([7]; 10 µM): 0.128
- increase in dead-cell fraction ([1]; 0.0003162 µM): -0.0042
- increase in dead-cell fraction ([1]; 0.001 µM): -0.0013
- increase in dead-cell fraction ([1]; 0.003162 µM): -0.0116
- increase in dead-cell fraction ([1]; 0.01 µM): -0.0114
- increase in dead-cell fraction ([1]; 0.03162 µM): -0.0305
- increase in dead-cell fraction ([1]; 0.1 µM): -0.0374
- increase in dead-cell fraction ([1]; 0.3162 µM): -0.0371
- increase in dead-cell fraction ([1]; 1 µM): -0.036
- increase in dead-cell fraction ([1]; 3.162 µM): -0.029
- increase in dead-cell fraction ([2]; 0.001 µM): -0.009
- increase in dead-cell fraction ([2]; 0.003162 µM): -0.0216
- increase in dead-cell fraction ([2]; 0.01 µM): -0.032
- increase in dead-cell fraction ([2]; 0.03162 µM): -0.0343
- increase in dead-cell fraction ([2]; 0.1 µM): -0.0329
- increase in dead-cell fraction ([2]; 0.3162 µM): -0.0295
- increase in dead-cell fraction ([2]; 1 µM): -0.0018
- increase in dead-cell fraction ([2]; 3.162 µM): 0.239
- increase in dead-cell fraction ([2]; 10 µM): 0.727
- increase in dead-cell fraction ([3]; 0.0003162 µM): 0.0033
- increase in dead-cell fraction ([3]; 0.001 µM): -0.0017
- increase in dead-cell fraction ([3]; 0.003162 µM): 0.0074
- increase in dead-cell fraction ([3]; 0.01 µM): 0.0041
- increase in dead-cell fraction ([3]; 0.03162 µM): 0.0026
- increase in dead-cell fraction ([3]; 0.1 µM): 0.0003
- increase in dead-cell fraction ([3]; 0.3162 µM): -0.0046
- increase in dead-cell fraction ([3]; 1 µM): -0.0094
- increase in dead-cell fraction ([3]; 3.162 µM): 0.0911
- increase in dead-cell fraction ([4]; 0.0001 µM): -0.0015
- increase in dead-cell fraction ([4]; 0.0003162 µM): -0.0015
- increase in dead-cell fraction ([4]; 0.001 µM): 0.0029
- increase in dead-cell fraction ([4]; 0.003162 µM): 0.0026
- increase in dead-cell fraction ([4]; 0.01 µM): -0.0001
- increase in dead-cell fraction ([4]; 0.03162 µM): 0.437
- increase in dead-cell fraction ([4]; 0.1 µM): 0.584
- increase in dead-cell fraction ([4]; 0.3162 µM): 0.58
- increase in dead-cell fraction ([4]; 1 µM): 0.532
- increase in dead-cell fraction ([8]; 0.001 µM): -0.0032
- increase in dead-cell fraction ([8]; 0.003162 µM): -0.0038
- increase in dead-cell fraction ([8]; 0.01 µM): -0.0003
- increase in dead-cell fraction ([8]; 0.03162 µM): 0.0052
- increase in dead-cell fraction ([8]; 0.1 µM): 0.0083
- increase in dead-cell fraction ([8]; 0.3162 µM): 0.0065
- increase in dead-cell fraction ([8]; 1 µM): 0.0053
- increase in dead-cell fraction ([8]; 3.162 µM): 0.0086
- increase in dead-cell fraction ([8]; 10 µM): 0.0229
- increase in dead-cell fraction ([9]; 0.0001 µM): 0.0035
- increase in dead-cell fraction ([9]; 0.0003162 µM): 0.0008
- increase in dead-cell fraction ([9]; 0.001 µM): 0.0008
- increase in dead-cell fraction ([9]; 0.003162 µM): -0.0007
- increase in dead-cell fraction ([9]; 0.01 µM): -0.0017
- increase in dead-cell fraction ([9]; 0.03162 µM): 0.0021
- increase in dead-cell fraction ([9]; 0.1 µM): 0.0037
- increase in dead-cell fraction ([9]; 0.3162 µM): 0.019
- increase in dead-cell fraction ([9]; 1 µM): 0.0391
- increase in dead-cell fraction ([10]; 0.0001 µM): -0.0022
- increase in dead-cell fraction ([10]; 0.0003162 µM): -0.0006
- increase in dead-cell fraction ([10]; 0.001 µM): -0.0009
- increase in dead-cell fraction ([10]; 0.003162 µM): 0.0009
- increase in dead-cell fraction ([10]; 0.01 µM): 0.0002
- increase in dead-cell fraction ([10]; 0.03162 µM): 0.0038
- increase in dead-cell fraction ([10]; 0.1 µM): 0.0149
- increase in dead-cell fraction ([10]; 0.3162 µM): 0.046
- increase in dead-cell fraction ([10]; 1 µM): 0.117
- increase in dead-cell fraction ([11]; 0.0001 µM): -0.0023
- increase in dead-cell fraction ([11]; 0.0003162 µM): 0.0009
- increase in dead-cell fraction ([11]; 0.001 µM): -0.0005
- increase in dead-cell fraction ([11]; 0.003162 µM): 0.004
- increase in dead-cell fraction ([11]; 0.01 µM): 0.0023
- increase in dead-cell fraction ([11]; 0.03162 µM): 0.006
- increase in dead-cell fraction ([11]; 0.1 µM): 0.011
- increase in dead-cell fraction ([11]; 0.3162 µM): 0.068
- increase in dead-cell fraction ([11]; 1 µM): 0.234
- GR value ([5]; 0.0003162 µM): 0.983 GR
- GR value ([5]; 0.001 µM): 1 GR
- GR value ([5]; 0.003162 µM): 0.938 GR
- GR value ([5]; 0.01 µM): 1.01 GR
- GR value ([5]; 0.03162 µM): 1 GR
- GR value ([5]; 0.1 µM): 0.975 GR
- GR value ([5]; 0.3162 µM): 0.94 GR
- GR value ([5]; 1 µM): 0.833 GR
- GR value ([5]; 3.162 µM): 0.293 GR
- GR value ([12]; 0.0001 µM): 1.05 GR
- GR value ([12]; 0.0003162 µM): 0.971 GR
- GR value ([12]; 0.001 µM): 0.953 GR
- GR value ([12]; 0.003162 µM): 0.953 GR
- GR value ([12]; 0.01 µM): 0.938 GR
- GR value ([12]; 0.03162 µM): 0.882 GR
- GR value ([12]; 0.1 µM): 0.871 GR
- GR value ([12]; 0.3162 µM): 0.601 GR
- GR value ([12]; 1 µM): 0.0924 GR
